What all share (experiment): inhibition of tumour cell growth, NCI panel, 48 h
Assay [1] deals with 786-0 renal.
The test system of assay [2] is A549 NSCLC.
Assay [3] relates to HCT-116 colon.
Assay [4] deals with HT29 colon.
The subject of assay [5] is NCI-H23 lung.
Assay [6] deals with OVCAR-8 ovarian.
Assay [7] relates to RXF 393 renal.
For assay [8], the system named is SK-MEL-5 melanoma.
The test system of assay [9] is SK-OV-3 ovarian.
Assay [10] concerns U251 CNS.

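Assay format: 96-well plates, 48-hour exposure. GI50: concentration for 50% inhibition of growth. TGI: total growth inhibition.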

Turning to `COC(=O)c1ccc2c(c1)[n+](=O)c(C(C)=O)c(C(F)(F)F)n2[O-]`, the GI50 in assay [1] was 1.91 µM; in assay [2] it was 1.96 µM; in assay [3], 1.45 µM; in [4], 1.73 µM; in assay [5], 1.81 µM; in assay [6], 2.87 µM. The GI50 in assay [7] was 2.04 µM; in assay [8], 1.69 µM; in assay [9], 2.22 µM; in [10] it was 1.8 µM. Further, the TGI in assay [1] is 3.37 µM; in [2] it was 3.7 µM; in assay [3], 2.76 µM; in assay [4], 3.25 µM; in assay [5], 3.38 µM; in [6] it was 8.28 µM. In addition, the TGI in assay [7] was 3.86 µM; in [8], 3.06 µM; in assay [9], 4.48 µM; in [10], 3.25 µM.

In the case of `COc1cc(C2CC(c3ccc(C)cc3)=NN2C(C)=O)ccc1Oc1ccnc2cc(Cl)ccc12` (configuration not stated), the GI50 in [1] was 1.17 µM; in [3], 0.681 µM; in assay [4], over 100 µM; in assay [5] it was 2.71 µM; in assay [7], 3.57 µM; in assay [8] it was over 100 µM. In addition, the GI50 in assay [9] was 32.4 µM; in assay [10], 1.41 µM. Further, the TGI in assay [1] was 10.4 µM; in [3] it was over 100 µM; in assay [4] it was over 100 µM; in assay [5], over 100 µM; in [7], over 100 µM; in [8], over 100 µM. In addition, the TGI in [9] and in [10] was over 100 µM each time.

As for `COc1ccc(NC(=O)CC(=O)n2nc(-c3ccccc3)c(N=Nc3ccc(C)cc3)c2-c2ccccc2)cc1`, the TGI was 45.6 µM in assay [1]; 63.3 µM in assay [2]; over 71 µM in assay [3]; over 100 µM in assay [4]; 54 µM in [5]; 63.3 µM in assay [6]. The TGI in [7] was 46.4 µM; in assay [8], over 78.1 µM; in [9] it was 40 µM; in assay [10], 47.5 µM.

Turning to `COc1ccc(CNCCN2C(=O)c3ccc4c5c(ccc(c35)C2=O)C(=O)N(CCNCc2ccc(OC)cc2)C4=O)cc1`, the GI50 is 1.17 µM in [1]; 0.329 µM in assay [2]; 0.147 µM in [3]; 0.122 µM in assay [4]; 0.206 µM in assay [5]; 0.178 µM in assay [6]. Besides, the GI50 in assay [7] is 0.225 µM; in assay [8], 0.15 µM; in assay [9], 1.13 µM; in assay [10], 0.199 µM. Moreover, the TGI in [1] worked out at 2.49 µM; in assay [2], 1.28 µM; in [3] it was 0.688 µM; in assay [4], 0.403 µM; in assay [5] it was 0.494 µM; in assay [6], 0.611 µM. The TGI in [7] stood at 0.981 µM; in assay [8] it was 0.285 µM; in [9], 2.37 µM; in assay [10], 0.48 µM.

As to `COC(=O)c1nc(N)[nH]c(=O)c1-c1ccc(Cl)cc1`, the TGI in assay [1], in assay [2], in [3], in assay [4], in [5] and in assay [6] was over 100 µM in each case. In addition, the TGI in assay [7], in [8], in assay [9] and in [10] was over 100 µM in each case.

As to `COc1cc(C2C3=C(COC3=O)N(CCO)c3cc4c(cc32)OCCO4)cc(OC)c1O` (configuration not stated), the GI50 was 7.03 µM in assay [1]; 9.71 µM in assay [2]; 2.15 µM in assay [3]; 1.67 µM in [4]; 2.46 µM in [5]; 2.76 µM in assay [6]. The GI50 in assay [7] is 0.971 µM; in assay [8] it was 1.29 µM; in assay [9] it was 2.29 µM; in assay [10], 2 µM. Moreover, the TGI is over 50 µM in assay [1]; over 50 µM in assay [2]; over 50 µM in assay [3]; over 18.5 µM in [4]; over 50 µM in assay [5]; over 50 µM in assay [6]. Further, the TGI in assay [7] was over 50 µM; in assay [8] it was over 20.5 µM; in assay [9], over 50 µM; in [10], over 50 µM.

As for `O=C(/C=C(\O)C(=O)O)/C=C(\O)c1ccc(Cl)cc1`, the TGI in assay [1], in assay [2], in assay [3], in assay [4], in [5] and in assay [6] was over 100 µM throughout. In addition, the TGI in assay [7], in [8], in assay [9] and in [10] was over 100 µM in each case.

Consider `Cc1cc(C)c(-c2noc(-c3ccc(Cl)cc3)c2C2=NCCN2)c(C)c1`, for which the TGI in assay [1] was 29.3 µM; in assay [2] it was over 100 µM; in assay [3], 64.5 µM; in assay [4], 34.2 µM; in assay [5] it was 36.2 µM; in [7], 45.1 µM. For the same molecule, the TGI in [8] was 24 µM; in [9], over 100 µM; in [10], 34.3 µM.

Take `C=CC[n+]1c(/C=C2\Sc3ccccc3N2C)sc(-c2ccccc2)c1-c1ccccc1`: the GI50 in assay [1] was 0.419 µM; in assay [2], 0.339 µM; in [3], 0.36 µM; in [4], 0.306 µM; in assay [5] it was 0.289 µM; in [6], 0.338 µM. Further, the GI50 in [7] is 0.519 µM; in assay [8], 0.173 µM; in assay [9] it was 0.296 µM; in assay [10] it was 0.315 µM. Further, the TGI in assay [1] turned out to be 11.1 µM; in assay [2] it was 11 µM; in assay [3], 11.5 µM; in assay [4] it was 6.1 µM; in assay [5], 10.9 µM; in assay [6] it was 10.9 µM. Besides, the TGI in assay [7] is 8.94 µM; in [8], 0.32 µM; in assay [9] it was 0.92 µM; in assay [10], 12.4 µM.

For the molecule `COC(=O)C1=C(O)C(C(=O)OC)[C@@]2(O)[C@@H](C(=O)OC)C(c3ccc(OC(=O)C(Cc4ccccc4)NC(C)=O)cc3)C[C@@H]1[C@@H]2C(=O)OC` (some centres not stated), the GI50 in assay [1] was 18.3 µM; in assay [2] it was 20.6 µM; in assay [3], 20.6 µM; in assay [4] it was 15.6 µM; in assay [5] it was 19.9 µM; in assay [6], 23.1 µM. Besides, the GI50 in assay [7] is 25.4 µM; in assay [8] it was 18 µM; in [9], 37.5 µM; in assay [10] it was 15.9 µM. Besides, the TGI in [1] amounted to 43.5 µM; in assay [2], 57.5 µM; in assay [3] it was 45.1 µM; in assay [4], 33.6 µM; in assay [5] it was 48.1 µM; in assay [6], 59.2 µM. Also, the TGI is 51.2 µM in assay [7], 39.3 µM in [8], over 100 µM in assay [9] and 32.8 µM in assay [10].

With `CCCCc1c2c(nc3c1CCc1cc(C=O)c(N)nc1-3)/C(=C/c1ccccc1)CCC2`, the TGI in [1] was over 100 µM; in assay [2], 61.5 µM; in assay [3] it was over 100 µM; in assay [4], over 100 µM; in assay [5], over 100 µM; in assay [6] it was over 100 µM. Moreover, the TGI in [7], in assay [8], in assay [9] and in assay [10] was over 100 µM throughout.

Regarding `COc1cc2c3c(c1OC)C1(C=CC(=O)C=C1)CC3N(C(=O)OC(C)(C)C(Cl)(Cl)Cl)CC2` (configuration not stated), the TGI in [1] was determined as 28.8 µM; in assay [2], 49.4 µM; in assay [3] it was 19 µM; in assay [4], 24.4 µM; in assay [5] it was 32.4 µM; in assay [6], 31.5 µM. Also, the TGI in assay [7] was found to be 18.5 µM; in [8], 20.7 µM; in assay [9] it was 96.9 µM; in assay [10], 22.4 µM.

With `CCOc1cccc2cccnc12`, the TGI in assay [1], in [2], in assay [3], in assay [4], in assay [5] and in assay [6] was over 100 µM throughout. The TGI in [7], in assay [8] and in assay [9] was over 100 µM each time.

As to `C=C1c2c(C)nn(-c3ccccc3)c2N(C)C23C[C@@H]1C1(C)c4c(C)nn(-c5ccccc5)c4N(C)C(C)(C[C@H]12)C3` (some centres not stated), the GI50 in assay [1] is 11.8 µM; in assay [2], 2.37 µM; in [3] it was 3.72 µM; in assay [4], 3.59 µM; in assay [5] it was 7.99 µM; in [6] it was 5.41 µM. Besides, the GI50 in [7] is 2.04 µM; in assay [9], 4.64 µM; in [10], 4.44 µM. For the same molecule, the TGI in assay [1] was 69.4 µM; in assay [2] it was over 100 µM; in assay [3], over 100 µM; in assay [4], over 100 µM; in [5], over 100 µM; in assay [6], over 100 µM. Also, the TGI in [7] was 6.39 µM; in [9], 21.8 µM; in [10], 31.6 µM.
